The supplement of paper PMC11061612

Tests used:
Experiment in all cases: combination Emax (second highest fraction inhibited in the dose matrix, 72 h); higher = more inhibition; extreme values may be limits of the assay
[1] = tested on: KYAE-1 (Esophageal Adenocarcinoma)
Summary of the method: (§1)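 Cell lines grown in DMEM/F12 or RPMI with 10% FBS were plated in 1536-well plates and held 24 hours at 37°C, 5% CO2 before 72 hours of exposure to two-drug dose matrices, with DMSO typically at 0.2%. CellTiter-Glo 2.0 luminescence gave viability, which was converted to inhibition. Vehicle wells were set to 0 and blank wells to 1. Combination Emax is the second-highest inhibition in the matrix, and Bliss excess is the observed combination effect minus the expected EA + EB − EA·EB, where EA and EB are the single-agent effects.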

[2] = tested on: BE-13 (T-Lymphoblastic Leukemia)
Summary of the method: as §1

[3] = tested on: OV-56 (Ovarian Carcinoma)
Summary of the method: as §1

KS-1 (Glioblastoma) = tested on: KS-1 (Glioblastoma)
Summary of the method: as §1

[4] = tested on: BFTC-909 (Kidney Carcinoma)
Summary of the method: as §1

[5] = tested on: OVCAR-5 (Ovarian Carcinoma)
Summary of the method: as §1

MPP-89 (Mesothelioma) = tested on: MPP-89 (Mesothelioma)
Summary of the method: as §1

BE2-M17 (Neuroblastoma) = tested on: BE2-M17 (Neuroblastoma)
Summary of the method: as §1

[6] = tested on: HuCCT1 (Biliary Tract Carcinoma)
Summary of the method: as §1

[7] = tested on: SW1710 (Bladder Carcinoma)
Summary of the method: as §1

[8] = tested on: SNU-16 (Gastric Carcinoma)
Summary of the method: as §1

[9] = tested on: LNZTA3WT4 (Low Grade Glioma)
Summary of the method: as §1

[10] = tested on: LS-123 (Colorectal Carcinoma)
Summary of the method: as §1

[11] = tested on: ESS-1 (Other Solid Carcinomas)
Summary of the method: as §1

[12] = tested on: Detroit562 (Head and Neck Carcinoma)
Summary of the method: as §1

[13] = tested on: L-428 (Hodgkin's Lymphoma)
Summary of the method: as §1

NCI-H2722 (Mesothelioma) = tested on: NCI-H2722 (Mesothelioma)
Summary of the method: as §1

GAMG (Glioblastoma) = tested on: GAMG (Glioblastoma)
Summary of the method: as §1

NCI-H2052 (Mesothelioma) = tested on: NCI-H2052 (Mesothelioma)
Summary of the method: as §1

| Structure (SMILES) | combination Emax [1] | combination Emax [2] | combination Emax [3] | combination Emax (KS-1 (Glioblastoma)) | combination Emax [4] | combination Emax [5] | combination Emax (MPP-89 (Mesothelioma)) | combination Emax (BE2-M17 (Neuroblastoma)) | combination Emax [6] | combination Emax [7] | combination Emax [8] | combination Emax [9] | combination Emax [10] | combination Emax [11] | combination Emax [12] | combination Emax [13] | combination Emax (NCI-H2722 (Mesothelioma)) | combination Emax (GAMG (Glioblastoma)) | combination Emax (NCI-H2052 (Mesothelioma)) |
| --- | --- | --- | --- | --- | --- | --- | --- | --- | --- | --- | --- | --- | --- | --- | --- | --- | --- | --- | --- |
| CN(C)CCCOc1ccc(-c2ccc3ncc4c(c3c2)n(C2CCOCC2)c(=O)n4C)cn1 [AZD0156] + C=CCn1c(=O)c2cnc(Nc3ccc(N4CCN(C)CC4)cc3)nc2n1-c1cccc(C(C)(C)O)n1 [AZD1775] (first compound max 1 µM, partner max 1 µM) | 0.426 | 0.964 | 0.19 | 0.39 | 0.67 | 0.347 | 0.522 | 0.57 | 0.717 | 0.337 | 0.919 | 0.783 | 0.609 | 0.973 | 0.606 | 0.824 | 0.268 | 0.266 | 0.376 |
| CN(C)CCCOc1ccc(-c2ccc3ncc4c(c3c2)n(C2CCOCC2)c(=O)n4C)cn1 [AZD0156] + CCN(CCO)CCCOc1ccc2c(Nc3cc(CC(=O)Nc4cccc(F)c4)[nH]n3)ncnc2c1 [AZD2811] (first compound max 1 µM, 7x7, partner max 1 µM) | 0.103 | 0.674 | 0.062 | 0.291 | 0.127 | 0.137 | 0.105 | 0.411 | 0.137 | 0.0832 | 0.593 | 0.105 | 0.161 | 0.606 | 0.75 | 0.187 | 0.146 | 0.22 | 0.284 |
| CN(C)CCCOc1ccc(-c2ccc3ncc4c(c3c2)n(C2CCOCC2)c(=O)n4C)cn1 [AZD0156] + C[C@@H]1COCCN1C2=NC(=NC(=C2)C3(CC3)[S@](=N)(=O)C)C4=C5C=CNC5=NC=C4 [AZD6738] (first compound max 1 µM, 7x7, partner max 10 µM) | 0.0979 | 0.723 | 0.741 | 0.561 | 0.813 | 0.756 | 0.63 | 0.928 | 0.796 | 0.509 | 0.982 | 0.778 | 0.644 | 0.989 | 0.88 | 0.777 | 0.248 | 0.422 | 0.399 |
| C=CCn1c(=O)c2cnc(Nc3ccc(N4CCN(C)CC4)cc3)nc2n1-c1cccc(C(C)(C)O)n1 [AZD1775] + C[C@@H]1COCCN1C2=NC(=NC(=C2)C3(CC3)[S@](=N)(=O)C)C4=C5C=CNC5=NC=C4 [AZD6738] (first compound max 1 µM, partner max 10 µM) | 0.588 | 1 | 0.849 | 0.66 | 0.906 | 0.782 | 0.737 | 0.957 | 0.861 | 0.713 | 0.989 | 0.9 | 0.892 | 1 | 0.902 | 0.891 | 0.403 | 0.596 | 0.488 |
| C=CCn1c(=O)c2cnc(Nc3ccc(N4CCN(C)CC4)cc3)nc2n1-c1cccc(C(C)(C)O)n1 [AZD1775] + O=C(c1cc(Cc2n[nH]c(=O)c3ccccc23)ccc1F)N1CCN(C(=O)C2CC2)CC1 [Olaparib] (first compound max 1 µM, partner max 10 µM) | 0.468 | 0.984 | 0.261 | 0.481 | 0.595 | 0.447 | 0.508 | 0.462 | 0.818 | 0.383 | 0.931 | 0.806 | 0.644 | 1 | 0.669 | 0.842 | 0.346 | 0.486 | 0.467 |
| CCN(CCO)CCCOc1ccc2c(Nc3cc(CC(=O)Nc4cccc(F)c4)[nH]n3)ncnc2c1 [AZD2811] + C=CCn1c(=O)c2cnc(Nc3ccc(N4CCN(C)CC4)cc3)nc2n1-c1cccc(C(C)(C)O)n1 [AZD1775] (first compound max 1 µM, partner max 1 µM) | 0.395 | 0.982 | 0.139 | 0.481 | 0.683 | 0.273 | 0.511 | 0.618 | 0.739 | 0.317 | 0.916 | 0.792 | 0.68 | 1 | 0.828 | 0.824 | 0.278 | 0.417 | 0.38 |
| CCN(CCO)CCCOc1ccc2c(Nc3cc(CC(=O)Nc4cccc(F)c4)[nH]n3)ncnc2c1 [AZD2811] + C[C@@H]1COCCN1C2=NC(=NC(=C2)C3(CC3)[S@](=N)(=O)C)C4=C5C=CNC5=NC=C4 [AZD6738] (first compound max 1 µM, 7x7, partner max 10 µM) | 0.122 | 0.732 | 0.609 | 0.576 | 0.777 | 0.698 | 0.646 | 0.741 | 0.773 | 0.398 | 0.974 | 0.754 | 0.632 | 0.97 | 0.913 | 0.78 | 0.326 | 0.399 | 0.359 |
| CCN(CCO)CCCOc1ccc2c(Nc3cc(CC(=O)Nc4cccc(F)c4)[nH]n3)ncnc2c1 [AZD2811] + O=C(c1cc(Cc2n[nH]c(=O)c3ccccc23)ccc1F)N1CCN(C(=O)C2CC2)CC1 [Olaparib] (first compound max 1 µM, 7x7, partner max 10 µM) | 0.208 | 0.824 | 0.179 | 0.363 | 0.221 | 0.184 | 0.189 | 0.354 | 0.25 | 0.185 | 0.705 | 0.223 | 0.301 | 0.63 | 0.702 | 0.348 | 0.204 | 0.399 | 0.184 |
| C[C@@H]1COCCN1c1cc(C2([S@](C)(=N)=O)CC2)nc(-c2ccnc3[nH]ccc23)n1 [AZD6738] + O=C(c1cc(Cc2n[nH]c(=O)c3ccccc23)ccc1F)N1CCN(C(=O)C2CC2)CC1 [Olaparib] (first compound max 10 µM, 7x7, partner max 10 µM) | 0.139 | 0.702 | 0.69 | 0.573 | 0.728 | 0.515 | 0.619 | 0.74 | 0.784 | 0.495 | 0.956 | 0.778 | 0.764 | 0.979 | 0.862 | 0.728 | 0.292 | 0.388 | 0.478 |
| COc1cccc2c1C(=O)c1c(O)c3c(c(O)c1C2=O)C[C@@](O)(C(=O)CO)C[C@@H]3O[C@H]1C[C@H](N)[C@H](O)[C@H](C)O1 [Doxorubicin] + Cc1cc2ncnn2cc1Nc1ncc2c(n1)n(C1CCOCC1)c(=O)n2C [AZD7648] (first compound max 1 µM, 7x7, partner max 10 µM) | 0.879 | 0.965 | 0.711 | 0.619 | 0.853 | 0.587 | 0.734 | 0.862 | 0.746 | 0.665 | 0.97 | 0.647 | 0.87 | 1 | 0.681 | 0.937 | 0.823 | 0.945 | 0.745 |
| COc1cccc(OCCCN)c1-c1cc(Nc2cnc(C#N)cn2)n[nH]1 [Prexasertib] + C=CCn1c(=O)c2cnc(Nc3ccc(N4CCN(C)CC4)cc3)nc2n1-c1cccc(C(C)(C)O)n1 [AZD1775] (first compound max 1 µM, partner max 1 µM) | 0.795 | 1 | 0.921 | 0.581 | 0.977 | 0.838 | 0.826 | 0.998 | 0.827 | 0.823 | 1 | 0.91 | 0.828 | 1 | 0.949 | 0.955 | 0.308 | 0.951 | 0.699 |
| COc1cccc(OCCCN)c1-c1cc(Nc2cnc(C#N)cn2)n[nH]1 [Prexasertib] + CN(C)CCCOc1ccc(-c2ccc3ncc4c(c3c2)n(C2CCOCC2)c(=O)n4C)cn1 [AZD0156] (first compound max 1 µM, 7x7, partner max 1 µM) | 0.594 | 0.965 | 0.895 | 0.581 | 0.936 | 0.838 | 0.724 | 0.983 | 0.819 | 0.794 | 1 | 0.885 | 0.752 | 1 | 0.922 | 0.958 | 0.193 | 0.843 | 0.556 |
| COc1cccc(OCCCN)c1-c1cc(Nc2cnc(C#N)cn2)n[nH]1 [Prexasertib] + C[C@@H]1COCCN1C2=NC(=NC(=C2)C3(CC3)[S@](=N)(=O)C)C4=C5C=CNC5=NC=C4 [AZD6738] (first compound max 1 µM, 7x7, partner max 10 µM) | 0.573 | 0.967 | 0.916 | 0.581 | 0.94 | 0.817 | 0.724 | 0.994 | 0.835 | 0.771 | 1 | 0.91 | 0.796 | 1 | 0.918 | 0.95 | 0.304 | 0.874 | 0.537 |
| CCc1c2c(nc3ccc(O)cc13)-c1cc3c(c(=O)n1C2)COC(=O)[C@]3(O)CC [SN-38] + O=C(c1cc(Cc2n[nH]c(=O)c3ccccc23)ccc1F)N1CCN(C(=O)C2CC2)CC1 [Olaparib] (first compound max 0.3 µM, 7x7, partner max 10 µM) | 0.118 | 0.965 |  | 0.556 | 0.931 | 0.637 | 0.646 | 0.89 | 0.662 | 0.327 | 0.848 | 0.464 | 0.55 | 1 |  | 0.94 | 0.38 | 0.762 |  |
